Columns and labels:
[1] = target: T1, FAK (910–1052) (Homo sapiens, UniProt Q05397); assay: SPR analysis, immobilized His-tagged FAK (910-1052); assay type: binding; conditions: Biacore 3000, CM5 chip, 25 °C, read-out: dissociation constant (KD) for FAK
T1 construct: For FAK (910–1052) DNA was amplified; made in house; host or cells: E. coli BL21 (DE3)
Excerpt: SPR was utilized as an independent confirmation of the kinetic parameters between SQAP and the putative binding proteins. […] The recombinant proteins were then expressed in Escherichia coli and purified to homogeneity. In addition, full length, His-tagged ADRM1 and GST-tagged HR23B (GST-HR23B) were also used. The proteins were first immobilized on a CM5 sensor chip of the SPR biosensor (Biacore 3000). For GST-HR23B analysis, a GST protein was additionally immobilized and used as a control in order to eliminate possible nonspecific binding of SQAP. SQAP samples at different concentrations were then injected over the proteins immobilized on the sensor chip. As a negative control we used sulfoquynovosylpropanediol (SQP), which lacks the fatty acid moiety of SQAP (Fig. 1). […]
The binding kinetics of SCP-2, MFE-2, ADRM1, HR23B and FAK with SQAP and SQP were analyzed on a Biacore 3000 instrument (GE Healthcare, Little Chalfont, UK). […] The buffer of purified peptides was exchanged to HBS-P (150 mM NaCl, 0.005% Surfactant P20, 10 mM HEPES-NaOH pH 7.4) using a PD 10 column (GE Healthcare, Little Chalfont, UK) and the concentrations were quantified using DC protein assay kit (Bio-Rad Laboratories, Hercules, CA, USA). […] Kinetic parameters were determined by analyzing the data using BIAevaluation 4.1 software (GE Healthcare, Little Chalfont, UK).

[2] = test system: HUVEC cells; assay: WST-8 cell viability assay, HUVEC; assay type: cell-based, human; conditions: 17 h, SQAP 10 and 20 µM
Experimental: HUVEC and A549 cells were seeded into a 96-well culture plate (2 × 10^4 cells/well). The following day, cells were treated with SQAP or vehicle in a medium containing 1% FBS and VEGF (50 ng/mL) for 17 h (HUVEC) or fibronectin (10 μg/mL) for 46 h (A549). Cell viability was measured using Cell Count Reagent SF (Nacalai Tesque, Kyoto, Japan) following the manufacturer’s instructions. Briefly, 1/10 volume of the WST-8 solution was added to each well, and the plates were incubated at 37 °C for 1 h. Then, cell viability was determined colorimetrically by measuring OD450 using a microplate reader on a Wallac ARVO 5X microplate reader (Perkin Elmer, Waltham, MA, USA).
control SQAP 10 µM SQAP 20 µM
Livecellswere measured with SF reagent under similarconditionsas describedin thewound healing
assayinFig.5. (A)HUVEC and (B)A549 cells.
(also on this page, place not known: Cell viability (%) Cell viability (%) Live cells were similar conditions as described in the wound assay in Fig. 5. (A) HUVEC (B) A549)

[3] = test system: human lung small cell carcinoma, Lu-65; assay: Tumor xenograft, SQAP plus X-irradiation; assay type: in vivo, KSN nude mice; conditions: 2 mg/kg i.v. five injections plus X-irradiation 8 Gy/fraction x 2; Supplementary Fig. S1, also ref 12
Experimental: Cell lines and animal studies: A human lung small cell carcinoma, Lu-65, was obtained from the Cell resource Center for Biomedical Research (Sendai, Japan) and maintained in RPMI-1640 medium supplemented with 10% fetal bovine serum, 100 units/ml penicillin, 100 μg/ml streptomycin, and 1 mM sodium pyruvate at 37 °C in 5% CO2 humidified atmosphere. Viable tumor cell (1 × 106) were implanted subcutanceously into the right hind legs of male KSN nude mice (6–8 weeks old). After the tumor volume reached 50 to 100 mm3, the tumor were treated and the tumor growth was monitored by palpation. The size of the palpable tumors was measured using calipers every two days. The tumor volume (V, […]) was estimated based on the formula as follows; (minor axis)^2 × (major axis) × 0.5.
Treatments: Synthesized SQAP was prepared one day before experimentation, and dissolved in saline at the appropriate concentrations. To analyze the tumor radioresponse, 2 mg/kg SQAP (dissolved in 100 μl of saline) was administered intravenously to the ‘SQAP’ group and ‘Combination’ group (adiministered five times daily from days zero to four). The same amount of saline was injected in the ‘control’ group and ‘X-irradiation’ group. […]

T1 sequence (Q05397 910-1052): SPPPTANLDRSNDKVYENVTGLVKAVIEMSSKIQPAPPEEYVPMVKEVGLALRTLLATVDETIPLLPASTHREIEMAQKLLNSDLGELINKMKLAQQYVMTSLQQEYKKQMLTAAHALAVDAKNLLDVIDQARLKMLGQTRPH

Kd [1]: 3.24 µM
SMILES: CCCCCCCCCCCCCCCCCC(=O)OCCCO[C@H]1O[C@H](CS(=O)(=O)O)[C@@H](O)[C@H](O)[C@H]1O [SQAP, sulfoquynovosylacylpropanediol]
cytotoxicity (WST-8 cell viability) [2]: noncytotoxic
tumor arrest in combination with irradiation [3]: synergistically enhanced tumor arrest

Source: PMC4601023, “Novel anticancer agent, SQAP, binds to focal adhesion kinase and modulates its activity” (Scientific Reports, 2015)
